Structures are written as SMILES. Where a name gives a salt, the structure may show the parent alone. Read-outs that look alike come from different tables or passages of the source. Marks after values point to notes of the source that are not given here.

The values that follow come from US20150259331A1, “PROTOZOAN PARASITE GROWTH INHIBITORS” (Northeastern University, priority 2014, published 2015).

One experiment concerns P. falciparum C235. In words: P. falciparum C235 assay. The class given is cell-based. Particulars: read-out: P. falciparum C235 (EC50).
The subject of the next experiment is P. falciparum D6. The experiment in a line: P. falciparum D6 assay. Particulars: strain D6. The experiment is classed as cell-based.
The test system of experiment [1] is T. brucei brucei Lister 427. In words: Trypanosome replication assay. The class given is cell-based, Trypanosoma brucei brucei. To be noted: 48 h, values ±7%. The protocol: Then 2 μL of DMSO (control) or different concentrations of drugs prepared from 200× DMSO stocks were added to the cultures. Cells were incubated at 37° C. for 48 h and counted with a hemocytometer. […] All experiments were repeated thrice in independent studies where each dose was administered in duplicate (total n=6). HepG2 Cell Toxicity Assay. The 384 well MTT cytotoxicity assay is a modification of the MTT method described by Ferrari et al. optimized for 384-well throughput, with modifications described below.

For another experiment, the system named is P. falciparum W2. In words: P. falciparum W2 assay. The class given is cell-based.
The subject of another experiment is L. major promastigote. In words: L. major promastigote assay. The experiment is classed as cell-based.
The next experiment has as its system L. major amastigote. The experiment in a line: L. major amastigote assay. The experiment is classed as cell-based.
In a further experiment the test system is HepG2 cells. In words: HepG2 cell toxicity (MTT) assay. The class given is cell-based. The procedure: Then 2 μL of DMSO (control) or different concentrations of drugs prepared from 200× DMSO stocks were added to the cultures. […] All experiments were repeated thrice in independent studies where each dose was administered in duplicate (total n=6). HepG2 Cell Toxicity Assay. The 384 well MTT cytotoxicity assay is a modification of the MTT method described by Ferrari et al. optimized for 384-well throughput, with modifications described below.
HepG2 Cell Toxicity assay. The 384 well MTT cytotoxicity assay is a modification of the MTT method described by Ferrari et al.^1 ENREF—26_ENREF—26_ENREF—26 optimized for 384 well throughput. […] 4.25 μL of diluted test compound was then added to the 38.3 μL of media in each well providing a 10 fold final dilution of compound. […] After a 48 hour incubation period, 8 μL of a 1.5 mg/ml solution of MTT diluted in complete MEM media was added to each well. All plates were subsequently incubated in the dark for 1 hour at room temperature. After incubation, the media and drugs in each well was removed by shaking plate over sink, the plates are then left to dry in hood for 15 minutes. […] Plates are put on a 3-D rotator for 15-30 minutes. Absorbance was determined in all wells using a Tecan iControl 1.6 Infinite plate reader.

The next experiment relates to T. cruzi. The experiment in a line: T. cruzi growth inhibition. The experiment is classed as cell-based, Trypanosoma cruzi. To be noted: for inhibition at 10 µM: read-out: T. cruzi % inh at 10 μM.
Setting [2] is: concentration giving 50% inhibition of growth of T brucei brucei Lister 427 cells, read-out: Tbb EC50.
Setting [3] is: strain W2, read-out: P. falciparum W2 (EC50).
Setting [4] is: MTT, 48 hour incubation, read-out: HepG2 IC50.
[5] abbreviates: Plasmodium falciparum, strain C235.
Setting [6] is: Trypanosoma brucei, concentration giving 50% inhibition of growth of T brucei brucei Lister 427 cells, read-out: Tbb EC50.
Where [7] appears, read: Plasmodium falciparum, strain W2, read-out: P. falciparum W2 (EC50).
Setting [8] is: Homo sapiens, HepG2, 48 h, MTT, 48 hour incubation, read-out: HepG2 IC50.

`O=S(=O)(c1ccc(-c2ccc3ncnc(Nc4ccc(OCc5cccc(F)c5)c(Cl)c4)c3c2)cc1)N1CCNCC1` [Compound 10s]: the EC50 with P. falciparum C235 (strain C235) was 120 nM; in the experiment with P. falciparum D6 it was 94 nM; in experiment [1] (setting [2]), 280 nM; in the experiment on P. falciparum W2 (setting [3]) it was 200 nM; with L. major promastigote it was above 15000 nM; in the experiment on L. major amastigote, 800 nM. In the experiment on T. cruzi, this molecule returned an EC50 of 790 nM. Moreover, the IC50 in the experiment with HepG2 cells (setting [4]) was found to be 3320 nM.

On to `CS(=O)(=O)c1ccc(-c2ccc3ncnc(Nc4ccc(OCc5cccc(F)c5)c(Cl)c4)c3c2)cc1` [Compound 10t, N-(3-Chloro-4-((3-fluorobenzyl)oxy)phenyl)-6-(4-(methylsulfonyl)phenyl)quinazolin-4-amine], for which the EC50 in the experiment with P. falciparum C235 (setting [5]) is 200 nM; in the experiment on P. falciparum D6 (Plasmodium falciparum), 120 nM; in experiment [1] (setting [6]), 900 nM; in the experiment on P. falciparum W2 (setting [7]), 360 nM; with L. major promastigote (Leishmania major) it was 1600 nM; in the experiment on L. major amastigote (Leishmania major) it was 3900 nM. Further, the EC50 in the experiment on T. cruzi (Trypanosoma cruzi) is 650 nM. Besides, in the experiment on HepG2 cells (setting [8]), the IC50 is above 15000 nM.

For the molecule `O=S(=O)(c1ccc(-c2ccc3ncnc(Nc4ccc(OCc5cccc(Cl)c5)c(Cl)c4)c3c2)cc1)N1CCOCC1` [Compound 20g, N-(3-Chloro-4-((3-chlorobenzyl)oxy)phenyl)-6-(4-(morpholinosulfonyl)phenyl)quinazolin-4-amine Hydrochloride], the EC50 in the experiment with P. falciparum C235 (setting [5]) came out at 330 nM; in the experiment on P. falciparum D6 (Plasmodium falciparum) it was 230 nM; in experiment [1] (setting [6]) it was 660 nM; with P. falciparum W2 (setting [7]), 660 nM; in the experiment on L. major promastigote (Leishmania major) it was 15000 nM; in the experiment on L. major amastigote (Leishmania major), 1100 nM. Besides, the IC50 in the experiment on HepG2 cells (setting [8]) is above 15000 nM. For the same molecule, in the experiment on T. cruzi (Trypanosoma cruzi), the inhibition at 10 µM amounted to 4%.

As to `O=S(=O)(c1ccc(-c2ccc3ncnc(Nc4ccc(OCc5cccc(F)c5)c(Cl)c4)c3c2)cc1)N1CCOCC1` [Compound 10a, N-(3-Chloro-4-((3-fluorobenzyl)oxy)phenyl)-6-(4-(morpholinosulfonyl)phenyl)quinazolin-4-amine], the EC50 with P. falciparum C235 (setting [5]) is 410 nM; with P. falciparum D6 (Plasmodium falciparum) it was 220 nM; in experiment [1] (setting [6]), 1390 nM; in experiment [1] (concentration giving 50% inhibition of growth of T brucei brucei Lister 427 cells, listed as NEU-369, read-out: Tbb EC50), 1300 nM; in the experiment with P. falciparum W2 (setting [7]), 690 nM; in the experiment on L. major promastigote (Leishmania major), 1300 nM. The EC50 with L. major amastigote (Leishmania major) is 1600 nM; with HepG2 cells (Homo sapiens, HepG2, read-out: HepG2 cell growth EC50), above 15000 nM. Also, the IC50 was above 15000 nM with HepG2 cells (setting [8]) and above 20000 nM in the experiment with HepG2 cells (setting [4]). In the experiment on T. cruzi (Trypanosoma cruzi), the inhibition at 10 µM is -46%.

Regarding `COc1ccc(Nc2ncnc3ccc(-c4ccc(S(=O)(=O)N5CCOCC5)cc4)cc23)cc1Cl` [Compound 20d, N-(3-Chloro-4-methoxyphenyl)-6-(4-(morpholinosulfonyl)-phenyl)quinazolin-4-amine Hydrochloride], the EC50 in the experiment on P. falciparum C235 (setting [5]) stood at 1200 nM; in the experiment on P. falciparum D6 (Plasmodium falciparum), 810 nM; in experiment [1] (setting [6]), 820 nM; in the experiment with P. falciparum W2 (setting [7]), 1700 nM; in the experiment on L. major promastigote (Leishmania major), 830 nM; with L. major amastigote (Leishmania major) it was 4800 nM. Further, the IC50 in the experiment on HepG2 cells (setting [8]) was above 15000 nM. Also, the inhibition at 10 µM with T. cruzi (Trypanosoma cruzi) stood at 43%.

For the molecule `O=S(=O)(c1cccc(-c2ccc3ncnc(Nc4ccc(OCc5cccc(F)c5)c(Cl)c4)c3c2)c1)N1CCCC1` [Compound 10o], the EC50 in the experiment on P. falciparum C235 (strain C235) was 300 nM; with P. falciparum D6, 190 nM; in experiment [1] (setting [2]), 250 nM; in the experiment on P. falciparum W2 (setting [3]), 480 nM; in the experiment with L. major promastigote it was above 15000 nM; with L. major amastigote, above 15000 nM. The IC50 with HepG2 cells (setting [4]) is above 15000 nM. Also, the “T. cruzi % inh at 10 μM” value in the experiment with T. cruzi is “(32)* %”.

`Fc1cccc(COc2ccc(Nc3ncnc4ccc(-c5cccc(N6CCCCC6)c5)cc34)cc2Cl)c1` [Compound 23g, N-(3-Chloro-4-((3-fluorobenzyl)oxy)phenyl)-6-(3-(piperidin-1-yl)phenyl)quinazolin-4-amine]: the EC50 with P. falciparum C235 (Plasmodium falciparum) is 1100 nM; in the experiment on P. falciparum D6 (Plasmodium falciparum), 640 nM; in experiment [1] (Trypanosoma brucei, read-out: Tbb EC50, concentration giving 50% inhibition of growth of T brucei brucei Lister 427 cells), 760 nM; with P. falciparum W2 (Plasmodium falciparum, W2, read-out: P. falciparum W2 (EC50)), 1800 nM; with L. major promastigote (Leishmania major), above 15000 nM; in the experiment with L. major amastigote (Leishmania major), above 15000 nM. In the experiment on HepG2 cells (Homo sapiens, HepG2, 48 h, read-out: HepG2 IC50, MTT, 48 hour incubation), the 50% inhibitory concentration (IC50) was above 15000 nM. In addition, the inhibition at 10 µM in the experiment with T. cruzi (Trypanosoma cruzi) is 24%.

`O=S(=O)(c1ccc(-c2ccc3ncnc(Nc4ccc(O)c(Cl)c4)c3c2)cc1)N1CCOCC1` [Compound 20c, 2-Chloro-4-((6-(4-(morpholinosulfonyl)phenyl)quinazolin-4-yl)amino)phenol Hydrochloride]: the EC50 in the experiment on P. falciparum C235 (setting [5]) was 19000 nM; with P. falciparum D6 (Plasmodium falciparum), 12000 nM; in experiment [1] (setting [6]), 1060 nM; in experiment [1] (concentration giving 50% inhibition of growth of T brucei brucei Lister 427 cells, listed as NEU-550, Hydrochloride, read-out: Tbb EC50), 1100 nM; in the experiment on P. falciparum W2 (setting [7]) it was 19000 nM; in the experiment with L. major promastigote (Leishmania major) it was above 15000 nM. This molecule gave an EC50 in the experiment on L. major amastigote (Leishmania major) above 15000 nM. Moreover, the IC50 in the experiment with HepG2 cells (setting [8]) was above 15000 nM. Also, the inhibition at 10 µM with T. cruzi (Trypanosoma cruzi) worked out at 14%.

For `Cl.O=S(=O)(c1ccc(-c2ccc3ncnc(Nc4ccc(OCc5ccccc5F)c(Cl)c4)c3c2)cc1)N1CCOCC1` [Compound 20i, N-(3-Chloro-4-((2-fluorobenzypoxy)phenyl)-6-(4-(morpholinosulfonyl)phenyl)quinazolin-4-amine Hydrochloride], the EC50 with P. falciparum C235 (strain C235) was determined as 220 nM; in the experiment with P. falciparum D6, 130 nM; in experiment [1] (concentration giving 50% inhibition of growth of T brucei brucei Lister 427 cells, Hydrochloride, read-out: Tbb EC50), 1650 nM; in experiment [1] (concentration giving 50% inhibition of growth of T brucei brucei Lister 427 cells, listed as NEU-565, Hydrochloride, read-out: Tbb EC50) it was 1700 nM; with P. falciparum W2 (setting [3]), 570 nM; in the experiment on L. major promastigote it was 710 nM. This molecule showed an EC50 in the experiment with L. major amastigote above 15000 nM. Besides, the concentration for half-maximal inhibition (IC50) with HepG2 cells (setting [4]) is above 15000 nM.

As for `CN1CCCN(S(=O)(=O)c2ccc(-c3ccc4ncnc(Nc5ccc(OCc6cccc(F)c6)c(Cl)c5)c4c3)cc2)CC1` [Compound 10q, N-(3-Chloro-4-((3-fluorobenzyl)oxy)phenyl)-6-(4((4-methyl-1,4-diazepan-1-yl)sulfonyl)phenyl)quinazolin-4-amine], the EC50 amounted to 50 nM in the experiment with P. falciparum C235 (setting [5]); 46 nM in the experiment with P. falciparum D6 (Plasmodium falciparum); 810 nM in experiment [1] (setting [6]); 52 nM in the experiment on P. falciparum W2 (setting [7]); 3600 nM in the experiment with L. major promastigote (Leishmania major); 2000 nM with L. major amastigote (Leishmania major). For the same molecule, in the experiment on T. cruzi (Trypanosoma cruzi), the EC50 was 510 nM. Moreover, the IC50 in the experiment on HepG2 cells (setting [8]) worked out at 1810 nM.

With `Fc1cccc(COc2ccc(Nc3ncnc4ccc(-c5ccc(CN6CCOCC6)cc5)cc34)cc2Cl)c1` [Compound 23d], the EC50 in the experiment with P. falciparum C235 (strain C235) turned out to be 85 nM; in the experiment on P. falciparum D6, 64 nM; in experiment [1] (setting [2]), 990 nM; with P. falciparum W2 (setting [3]), 100 nM; in the experiment with L. major promastigote, 2700 nM; in the experiment on L. major amastigote, 5900 nM. This molecule registered an EC50 in the experiment with T. cruzi of 600 nM. Also, in the experiment on HepG2 cells (setting [4]), the IC50 was determined as 12900 nM.

For the molecule `O=S(=O)(c1ccc(-c2ccc3ncnc(Nc4ccc(OCc5cccc(F)c5F)c(Cl)c4)c3c2)cc1)N1CCOCC1` [Compound 20h, N-(3-Chloro-4-((2,3-difluorobenzyl)oxy)phenyl)-6-(4-(morpholinosulfonyl)phenyl)quinazolin-4-amine Hydrochloride], the EC50 in experiment [1] (setting [6]) came to 820 nM. Further, the IC50 in the experiment with HepG2 cells (setting [8]) is above 15000 nM.

For the molecule `Fc1cccc(COc2ccc(Nc3ncnc4ccc(-c5cccc(N6CCSCC6)c5)cc34)cc2Cl)c1` [NEU-713], the EC50 in the experiment with P. falciparum C235 (strain C235) was 780 nM; in the experiment on P. falciparum D6, 440 nM; in experiment [1] (setting [2]) it was 770 nM; in the experiment with P. falciparum W2 (setting [3]), 1300 nM; with L. major promastigote, above 15000 nM; in the experiment on L. major amastigote, 10000 nM. For the same molecule, in the experiment on T. cruzi, the “T. cruzi % inh at 10 μM” value was “(55)* %”.
